One may read the melting point as the temperature of the solid-liquid transition.

On to `Cn1c(COc2ccc(CC3SC(=O)NC3=O)cc2)nc2ccc(Sc3ccccc3)nc21` (stereo not given), for which the melting point fell in the range of 166 to 168 °C.
For `C#CCSc1nn(C(=O)NS(=O)(=O)c2c(C)cccc2OCCC)c(=O)n1C` the value was 151 °C; for `NC(=S)N(N)Cc1cccc(Cl)c1`, 153 to 158 °C.
For `CCOC(=O)CNCc1c(N)ccc(N2CCCC2)c1Cl` the value was 69 to 70 °C.
For `O=C(Nc1n[nH]c2c(F)cccc12)c1ccccc1` the value was 232 °C.
In the case of `CC(C)c1cc(CO)cc(C(C)C)c1NC(=O)CN1CCN(CCSc2nc3cccc(C(F)(F)F)c3o2)CC1`, the melting point was in the range of 146 to 148 °C.
For `CC(C)(C)C(OC(=O)Cl)C(Oc1ccc(Cl)cc1)N1CN=CN1` (stereo not given) the value was 75 to 80 °C; for `Cn1ncc(/C=C/C(=O)Nc2ccc(CC(C)(C)O)cc2)c1-c1ccc(F)cc1`, 188 to 189 °C; for `CCC(=O)OC1(C(=O)C(O)OC(=O)C(NC(=O)OC(C)(C)C)C(C)C)CCC2C3CC(C)C4=CC(=O)C=CC4(C)C3C(O)CC21C` (stereo not given), 110 to 130 °C.
For `COc1cc(OC)c(C)c(C(=O)NCC23CC4CC(CC(C4)C2)C3)c1` the value was 173 to 175 °C; for `Cc1nc2c(O)c(C(=O)[C@H](O)[C@@H](O)c3ccccc3)ccc2n1C`, 170 °C.
For `O=c1[nH]c(=O)n2c(c1Cc1ccccc1)SCCC2` the value was 227 to 229 °C; for `CCCCN(CCCC)Cc1nc(-c2ncn3c2CN(C)C(=O)c2c(Cl)cccc2-3)no1`, 140 to 142 °C; for `CN(C)c1ccc(/C=C/c2ccc(F)cc2F)cc1`, 139 to 140 °C.
In turn, `Cc1c([N+](=O)[O-])ccc(N)c1C(=O)O` displayed a melting point of 183 to 184 °C.
For `Nc1ccc(C(=O)Nc2ccccc2C(c2ccc(O)cc2)c2ccc(O)cc2)cc1` the value was 158 to 161 °C; for `CCCCOc1cc(O)c(C#N)s1`, 107 °C.
For `O=C(NCC1CCCO1)c1cccc(-c2ccc3c(c2)C(c2cc(Cl)ccc2Cl)CC3)c1` (stereo not given) the value was 122 °C; for `CNC(=O)N(O)C(C)c1ccc(Br)cc1` (stereo not given), 129 to 130 °C; for `O=C(Nc1ccc(C(F)(F)F)cc1)Nc1cccc(S(=O)(=O)NCCN2CCOCC2)c1`, 62 to 65 °C.
The result for `O=Cc1cccn1Cc1ccccc1[N+](=O)[O-]` reads 128 to 132 °C.
`Cc1nn(CC(=O)c2ccc(Cl)cc2)c(=O)n1-c1ccc(N2CCN(c3ncc(O)cn3)CC2)cc1` showed a melting point of 225 °C.
The result for `CCC1(C)SC(C)N=C1C` (stereo not given) reads 82 °C; that for `Clc1ccc2[nH]nc(N3CCNCC3)c2c1`, 60 to 62 °C; that for `CC(=O)c1cc2c(s1)SCCN(CCCCCl)C2=O`, 132 to 134 °C.
`O=C(c1ccccc1)N1CCN2c3ccccc3Cn3cccc3C2C1` (stereo not given) yielded a melting point of 137 to 139 °C.
Turning to `CN(c1cccc2cc(C3=NCC(C)(CN4CCN(S(C)(=O)=O)CC4)S3)[nH]c12)S(=O)(=O)c1cccs1` (stereo not given), the melting point lay within 209 to 210 °C.
For the molecule `CC(CO)N1CC(COc2cccc(Cl)c2)OC1=O` (stereo not given), the melting point was 76 to 78 °C.
The result for `Cc1oc(-c2ccccc2)nc1CCOc1cccc(OC(C)(C)C(=O)O)c1` reads 140 to 141 °C; that for `CCCCC[C@H]1CC[C@H](/C=C/COc2ccc(C(=O)O)cc2)CC1`, 214 to 215 °C; that for `CC(C)c1cc(C(=O)O)oc1C(C)C`, 105 to 106 °C.
The result for `Cc1ccccc1CC(=NC#N)NC(NC(=O)CF)C(C)(C)C` (stereo not given) reads 151 to 152 °C.
The result for `CC1(C)OC(=C(C#N)C#N)C(C#N)=C1c1ccc(-n2cc(-c3ccccc3)nn2)cc1` reads 280 °C.
For `O=C(O)c1ccc(C(c2ccccc2)(C(F)(F)F)C(F)(F)F)cc1`, the melting point was in the range of 153 to 155 °C.
`Cc1cc(CN2CCN(C(C)C)CC2)cc2c1Cc1c(-c3ccsc3)n[nH]c1-2` returned a melting point of 113 to 114 °C.
The result for `O=C(O)C[C@H](NC(=O)Nc1ccc([N+](=O)[O-])cc1)C(=O)O` reads 118 to 120 °C; that for `Clc1ccc(-c2nc(COc3ccc(CCCn4ccnc4)cc3)co2)o1`, 88 to 89 °C.
The result for `CCOC(=O)c1cncc(-c2cnc3c(c2)N(Cc2cc(F)ccc2F)CCN3)c1` reads 169 to 172 °C; that for `CCN(CC)c1ccc(F)c2nc(Nc3ccc(Cl)cc3Cl)[nH]c12`, 204 to 205 °C.
Turning to `COc1ccc(C(O)(Cc2ccncc2)c2ccccc2)c2c1OC(C)(C)C2` (stereo not given), the melting point was 78 to 81 °C.
For `COc1ccc(SC(C)(CC=C(C)C)C(=O)NO)cc1` (stereo not given) the value was 89 °C.
For `O=c1[nH][nH]c(C(F)(F)F)c1Cc1ccc2nccnc2c1` the value was 266 to 268 °C.
The result for `CC(C)(C)NNC(=O)c1ccc(Cl)cc1` reads 116 to 122 °C.
The molecule `CCN(CC)C(=O)c1ccc(C(=C2CCNCC2)c2cccc3ccccc23)cc1` came in with a melting point of 80 to 85 °C.
The result for `COc1cc(OC)c2c(=O)cc(-c3ccccc3)oc2c1` reads 147 to 149 °C; that for `Nc1c(Cl)cc(-c2ccccc2)cc1Cl`, 112 to 113 °C.
As to `C#CCn1cc(Cl)cnc1=O`, the melting point was 130 °C.
For `N#Cc1c(I)c(C(=O)Cl)c(I)c(C(=O)NCC(O)CO)c1I` (stereo not given) the value was 285 to 288 °C; for `CC(=O)N1CCN(Cc2cnc(-c3cc4cccc(NS(=O)(=O)c5cccs5)c4[nH]3)s2)CC1`, 149 to 150 °C; for `CC(=O)Nc1cccc(-c2ccc3nnn(Cc4ccc5ncccc5c4)c3n2)c1`, 198 to 201 °C.
As for `CCCc1nc2c(N)nc3cc(F)ccc3c2o1`, the melting point was 184 to 187 °C.
The result for `C#Cc1ccc(C)cc1CC(=O)O` reads 98 to 101 °C.
The result for `CCCCCCCCCCCCCCOC(=O)OC1CC(C)(C)N(C)C(C)(C)C1` reads 32 to 34 °C; that for `O=C(COCc1ccccc1)Nc1ccc(OC(=O)COCc2ccccc2)cc1`, 55.5 to 58.5 °C.
The result for `COc1cc(-c2cccc([N+](=O)[O-])c2)ccc1N` reads 167 to 168 °C; that for `O=c1[nH]c(CCN2CCN(c3nsc4ccccc34)CC2)cs1`, 190 °C; that for `CCOc1ccc(C2=NN(c3ccc(C(=O)N4CCN(c5nc(-c6ccccc6)ns5)CC4)cc3)C(=O)[C@@H]3CC=CC[C@H]23)cc1OCC`, 168 to 169 °C.
Molecule `O=[N+]([O-])c1oc2ccc(Cc3nnn[nH]3)cc2c1-c1ccccc1` showed a melting point of 245 to 247 °C.
For `Cn1nc2c(c1-c1ccc(Cl)cc1)Cc1ccccc1-2` the value was 131 to 133 °C; for `COc1ccc(Nc2nc(-c3ccc(-c4ccccc4)cc3)cs2)nc1`, 212 to 213 °C; for `CCc1cccc2c(/C=C/C(=O)N3CCCCC3)cc(OC)c(OCOC)c12`, 85 to 86 °C.
In turn, `COc1ccc(CN2CCC(c3cc(-c4ccc(Cl)cc4)[nH]n3)CC2)cc1` came in with a melting point of 166 to 168 °C.
The result for `CCOC(=O)c1cnc2[nH]c(=O)ccc2c1Nc1ccc(OC)cc1` reads 243 to 246 °C.
The result for `CCNC(=S)n1nc(Oc2ncc(C(F)(F)F)cc2Cl)cc1C` reads 74 to 75 °C.
The result for `ClCc1cnc2ccc(Cl)cc2c1Cl` reads 102 to 105 °C; that for `CCC1(C(=O)Nc2ccc(OC)cc2)CCCCC1C` (stereo not given), 107 °C; that for `CCNc1nnc2ccc(-c3cccc(N(C)C(C)=O)c3)nn12`, 225 to 227 °C.
Molecule `N#Cc1cnn(-c2ccc(Cl)c(Cl)c2Cl)c1NCCO` gave a melting point of 197 to 199 °C.
The result for `O=C(Cn1c(-c2ccccc2)ncc(NC(=O)OCc2ccc(C(=O)O)cc2)c1=O)NC(Cc1ccccc1)C(=O)C(F)(F)F` (stereo not given) reads 202 to 207 °C; that for `O=C(O)CN1C(=O)[C@@H](N[C@@H](CCC2CCCCC2)C(=O)O)CSc2ccccc21`, 207 to 210 °C; that for `COC(=O)c1ccc(CCN(C)CCCC(C#N)(c2cccc(C(=O)OC)c2)C(C)C)cc1` (stereo not given), 108 to 112 °C.
Molecule `CC(C)(Cc1ccc(Cl)cn1)C(N)=O` had a melting point of 51.4 to 53.4 °C.
The result for `Cn1cc(C(=O)O)c(=O)c2cc3cc(F)c(N4CCN(O)CC4)c(F)c3nc21` reads 285 to 288 °C; that for `O=C(CNC(=O)OCc1ccc([N+](=O)[O-])cc1)Oc1ccc(C(=O)OCI)cc1`, 146 to 148 °C; that for `CNC(=O)N(O)CCCNC(=O)c1cccc(Oc2ccccc2)c1`, 175 to 177 °C.
In turn, `CCOC(=O)CN1C(=O)C(N[C@H]2CCCCNC2=O)CCc2ccccc21` (stereo not given in full) gave a melting point of 148 to 150 °C.
For `CCCCCCCCOC(=O)c1[nH]c2cccc3c2c1CCNC3=O` the value was 170 to 171 °C; for `NC(=O)CC[C@H](NCc1ccccc1C(=O)O)C(=O)O`, 132 to 133 °C.
Consider `O=C(O)CCOc1ccc2c(c1)CCO2`, for which the melting point lay within 131 to 132 °C.
The result for `CC(=O)Nc1ccc(S(=O)(=O)Nc2nnc(S(N)(=O)=O)s2)cc1` reads 280 to 281 °C.
For `COc1c(OCc2ccccc2)cnc(CO)c1C` the value was 70 to 73 °C; for `CCOC(=O)c1cnc2sccc2c1Cl`, 71 to 72 °C.
For `CN(C(CCn1c(=O)cc(C(F)(F)F)[nH]c1=O)C(=O)NO)S(=O)(=O)c1ccc(Oc2ccncc2)cc1` (stereo not given) the value was 116 to 118 °C; for `C=CCc1c(C(=O)OC)[nH]c2c(C)ccc(C)c12`, 135 to 136 °C; for `CC(C)(C)OC(=O)N1CCCC(Nc2cc(-c3ccc(F)c(NC(=O)c4cnc(C(C)(C)C)cn4)c3)n[nH]c2=O)C1` (stereo not given), 120 to 121 °C.
The molecule `Cc1cc(O)nc(SCC(N)=O)n1` returned a melting point of 238 to 240 °C.
Regarding `O=C1CCC(N2Cc3c(OCc4ccc(CN5CCN(c6ncccn6)CC5)cc4)cccc3C2=O)C(=O)N1` (stereo not given), the melting point lay within 142 to 144 °C.
For `Cc1cc(C)c2cc3c(cc2n1)C(NCCc1ccccc1)C(O)C(C)(C)O3` (stereo not given) the value was 144 to 147 °C.
The molecule `CCCC(=O)NS(=O)(=O)c1ccc(C(=O)C=Cc2cc(-c3cc4ccccc4[nH]3)c(OC)cc2OC)cc1` showed a melting point of 155 to 165 °C.
The result for `COC(=O)N(C)NC(=O)Oc1ccccc1` reads 86 °C.

The record behind these values is a melting point compilation (Tetko et al.; mined from patent text by program, amines drawn as free bases though some values may be those of a salt).
